The text below walks through data of patent US5869464A, “2'-Deoxy-5-fluorouridine derivatives, a process for their preparation, antitumor agents containing same and methods for using said agents” (Taiho Pharmaceutical Co. Ltd., priority 1993, dated 1999).

Where two headings read alike, the source gives them in different places.

Series [1] in a line: Inhibition of body weight gain in Yoshida sarcoma-bearing rats (Pharmacological Test Example 1). Details: species or system rat (male Donryu/CRJ strain). The note with it: rat, in vivo.
Series [2] deals with Yoshida sarcoma cells. The series can be described thus: Antitumor effect on subcutaneously transplanted Yoshida sarcoma (Pharmacological Test Example 1). The class given is in vivo, rat (male Donryu/CRJ strain). The note with it: for ED50: Rattus norvegicus, YOSHIDA, iv, read-out: ED50 (effective dose for achieving 50% inhibition of tumor growth).
For series [3], the system named is tumor cells. As to conditions: in vitro tests; cited from earlier work.
The conditions of series [4]: under the influence of pyrimidine nucleoside phosphorylase; cited from earlier work.
For series [5], the system named is Yoshida sarcoma cells. The series can be described thus: Antitumor effect on subcutaneously transplanted Yoshida sarcoma (Pharmacological Test Example 1). The class given is in vivo, rat (male Donryu/CRJ strain). As to conditions: oral; for ED50: Rattus norvegicus, YOSHIDA, once a day for 7 consecutive days from 24 h after transplantation, 8th day, read-out: ED50 (effective dose for achieving 50% inhibition of tumor growth); for T.I. (therapeutic index = BWC50/ED50): once a day for 7 consecutive days. How it is done: The compounds of the present invention were tested for antitumor effect.
Rat-transplantable tumor, Yoshida sarcoma cells (2×10^4) were subcutaneously transplanted in the back of male Donryu/CRJ strain rats (weighing 150 to 165 g). The test compounds were suspended in a 0.5% aqueous solution of hydroxypropylmethyl cellulose. Twenty-four hours after the transplantation, each suspension was orally administered to rats (7 rats in each group) in an amount of 1.0 ml per 100 g of rats' body weight once a day for 7 consecutive days. Only a solution of hydroxypropylmethyl cellulose containing no test compound was orally administered to the control group in an amount of 1.0 ml/100 g rats' body weight once a day for 7 consecutive days starting 24 hours after the transplantation.
The rats were sacrificed on the 8th day after the transplantation and their tumors were extirpated. The tumors were weighed to calculate an average tumor weight at each dose. The results were compared between the treated group and the control group. An effective dose (ED50) for achieving 50% inhibition of tumor growth was determined from the dose-tumor reduction curve. A dose of 50% inhibition of body weight gain (BWC50)was determined from the dose-body weight change curve. The therapeutic index (T.I.=BWC50 /ED50) was also determined.

Series [6] concerns human kidney cancer strain, JRC-11. As to the kind of experiment: Tumor growth inhibition, nude rat-transplantable human kidney cancer strain JRC-11 (Pharmacological Test Example 2(a)). The note with it: once a day for 14 consecutive days. The class given is in vivo, human tumor in male F344/N Jcl-rnu nude rat. From the text:
(§1) (a) A tumor piece (about 2 mm^3) of nude rat-transplantable human kidney cancer strain, JRC-11, was subcutaneously transplanted in the armpit of each male F344/N Jcl-rnu nude rat. The treatment of rats (7 rats in each group) started when the rats' tumors grew to an estimated volume of 250 mm^3 as calculated by an equation
wherein L is the length of the tumor and W is the width of the tumor, each being measured by calipers. The treated group (rats to be treated with the test compounds) and the control group were tested under equal conditions concerning the mean value of tumor volume and standard deviation. The test compounds were suspended in a 0.5% aqueous solution of hydroxypropylmethyl cellulose. Each suspension was orally administered to rats in an amount of 1.0 ml per 100 g of rats' body weight once a day for 14 consecutive days. Only a solution of hydroxypropylmethyl cellulose containing no test compound was orally administered to the control group in an amount of 1.0 ml per 100 g rats' body weight once a day for 14 consecutive days.
(§2) A ratio of tumor growth of each rat was calculated from two tumor volumes on the first day of administration and on the day following the last administration. A mean ratio of tumor growth of the group (T) or the control group (C) was calculated from said ratio. Then, a tumor growth inhibition ratio (%) was calculated by the following equation: […]

The subject of series [7] is human stomach cancer strain, H-81. As to the kind of experiment: Tumor growth inhibition, nude rat-transplantable human stomach cancer strain H-81 (Pharmacological Test Example 2(b)). The format is in vivo, human tumor in male F344/N Jcl-rnu nude rat. The note with it: once a day for 14 consecutive days.
Text: as §1
wherein L is the length of the tumor and W is the width of the tumor, each being measured by calipers. The treated group (rats to be treated with the test compounds) and the control group were tested under equal conditions concerning the mean value of tumor volume and standard deviation. The test compounds were suspended in a 0.5% aqueous solution of hydroxypropylmethyl cellulose. […]
as §2
(b) The same experiment as in (a) was conducted except that a nude rat-transplantable human stomach cancer strain, H-81, was used in place of the nude rat-transplantable human kidney cancer strain, JRC-11. A tumor growth inhibition ratio was calculated.

Where [8] appears, read: CVI: continuous intravenous drip injection.

Regarding `O=c1[nH]c(=O)n([C@H]2C[C@H](O)[C@@H](CO)O2)cc1F` [FdUrd, 2'-deoxy-5-fluorouridine], the TD50 in series [1] (iv, CVI: continuous intravenous drip injection, read-out: BWC50 (dose of 50% inhibition of body weight gain)) was 0.7 mg/kg; in series [1] (iv, iv: intravenous injection, read-out: BWC50 (dose of 50% inhibition of body weight gain)), 60 mg/kg. The “T.I. (therapeutic index = BWC50/ED50)” value worked out at 0.88 in series [2] (setting [8]) and 1.36 in series [2] (iv: intravenous injection). Also, the ED50 (as a rule, the midpoint of the dose-response relation) is 0.8 mg/kg in series [2] (setting [8]) and 44 mg/kg in series [2] (iv: intravenous injection). Also, the “inhibition of the growth of tumor cells” value in series [3] is reported as “significantly inhibits the growth of tumor cells”. Besides, in series [4], the “therapeutic effect in vivo” value is “can not produce a satisfactory therapeutic effect”.

Turning to `CCCOc1nc(=O)n([C@H]2C[C@H](OCc3ccc(Cl)cc3Cl)[C@@H](CO)O2)cc1F` [Compound 12], in series [5], the ED50 was 3 mg/kg and the “T.I. (therapeutic index = BWC50/ED50)” value came to 5.3. The TD50 in series [1] (po) was 16 mg/kg.

On to `CCOc1nc(=O)n([C@H]2C[C@H](OCc3ccc(Cl)cc3F)[C@@H](CO)O2)cc1F` [Compound 13, 3'-O-(4-chloro-2-fluorobenzyl)-2'-deoxy-4-O-ethyl-5-fluorouridine], for which the “Inhibition ratio (%) (tumor growth)” value came out at 67% in series [6] (3.75 mg/kg oral), 73% in series [6] (7.5 mg/kg oral), 74% in series [7] (3.75 mg/kg oral) and 79% in series [7] (7.5 mg/kg oral).

On to `CCCOc1nc(=O)n([C@H]2C[C@H](OCc3ccc(Cl)cc3F)[C@@H](CO)O2)cc1F` [Compound 3], for which, in series [5], the ED50 came out at 4 mg/kg and the “T.I. (therapeutic index = BWC50/ED50)” value is reported as 3.5. In series [1] (po), this compound gave a TD50 of 14 mg/kg.

As for `CCCCC(=O)OC[C@H]1O[C@@H](n2cc(F)c(OCc3ccc(F)cc3)nc2=O)C[C@@H]1OC(=O)CCCC` [Comparative Compound 3, 2'-deoxy-4-O-(4-fluorobenzyl)-3',5'-di-O-n-pentanoyl-5-fluorouridine], in series [5], the median effective dose (ED50) is more than 40 mg/kg and the “T.I. (therapeutic index = BWC50/ED50)” value is less than 1.0. This compound also had a TD50 in series [1] (po) of 40 mg/kg.

Turning to `O=c1[nH]c(=O)n([C@H]2C[C@H](OCc3ccc(Cl)cc3F)[C@@H](CO)O2)cc1F` [Comparative Compound 1, 3'-O-(4-chloro-2-fluorobenzyl)-2'-deoxy-5-fluorouridine], in series [5], the median effective dose (ED50) was determined as 7.5 mg/kg and the “T.I. (therapeutic index = BWC50/ED50)” value is 1.1. Besides, in series [1] (po), the TD50 amounted to 8.5 mg/kg.

On to `CCCOc1nc(=O)n([C@H]2C[C@H](OCc3ccc(F)cc3F)[C@@H](CO)O2)cc1F` [Compound 7], for which, in series [5], the 50% effective dose (ED50) turned out to be 7.5 mg/kg and the “T.I. (therapeutic index = BWC50/ED50)” value was 2.4. In series [1] (po), the TD50 came out at 18 mg/kg.

Take `CCCOc1nc(=O)n([C@H]2C[C@H](O)[C@@H](CO)O2)cc1F` [Comparative Compound 2, 2'-deoxy-4-O-n-propyl-5-fluorouridine]: in series [5], the 50% effective dose (ED50) was found to be 34 mg/kg and the “T.I. (therapeutic index = BWC50/ED50)” value is on record as 1.1. The same compound had a TD50 in series [1] (po) of 37 mg/kg.
